One data set relates to Pseudomonas aeruginosa. As to the kind of experiment: Antibacterial activity against Pseudomonas aeruginosa PAO1 by disc diffusion method. Format: functional.
Data set [1] is described as follows: Solubility of the compound in physiological medium. Format: physicochemical.
Data set [2] is described as follows: Solubility of the compound in aqueous medium. The format is physicochemical. The following applies: buffer.

Activity calls are given as the source filed them. No cut-off for these calls is given here.

The source of these data is ChEMBL document CHEMBL4043251, “Synthesis of conjugates between oxazolidinone antibiotics and a pyochelin analogue” (Bioorg Med Chem Lett, 2017).

Regarding `CC(=O)NC[C@H]1CN(c2ccc(N3CCN(C(=O)CCC(=O)NCCCN4C([C@H]5CSC(c6ccccc6O)=N5)SC[C@H]4C(=O)O)CC3)c(F)c2)C(=O)O1` (stereo partly drawn), the outcome in the data set with Pseudomonas aeruginosa was inactive. The solubility result in data set [1] is reported as “Insoluble”.

As for `CC(=O)NC[C@H]1CN(c2ccc(N3CCN(C(=O)CNC(=O)OCCOCCOCC(=O)NCCCN4C([C@H]5CSC(c6ccccc6O)=N5)SC[C@H]4C(=O)O)CC3)c(F)c2)C(=O)O1` (stereo partly drawn), the solubility entry in data set [2] and in data set [1] was “Insoluble” in each case. In addition, the outcome in the data set with Pseudomonas aeruginosa was inactive.

Consider `CC(=O)NC[C@H]1CN(c2ccc(N3CCN(C(=O)OCCOCCOCC(=O)NCCCN4C([C@H]5CSC(c6ccccc6O)=N5)SC[C@H]4C(=O)O)CC3)c(F)c2)C(=O)O1` (stereo partly drawn), for which the solubility result in data set [2] and in data set [1] was “Insoluble” throughout. The outcome with Pseudomonas aeruginosa was inactive.
